Source: ChEMBL document CHEMBL1799930, “Novel nanomolar imidazo[4,5-b]pyridines as selective nitric oxide synthase (iNOS) inhibitors: SAR and structural insights” (Bioorg Med Chem Lett, 2011)
Active and inactive are the calls of the source. The rule behind the calls is not given here.

Key:
Nitric oxide synthase 3 = target: T1, Nitric oxide synthase 3 (Homo sapiens, UniProt P29474); test: Inhibition of human eNOS assessed as inhibition of [3H]L-arginine to [3H]L-citrulline conversion by scintillation counting
T1 sequence (P29474 whole entry): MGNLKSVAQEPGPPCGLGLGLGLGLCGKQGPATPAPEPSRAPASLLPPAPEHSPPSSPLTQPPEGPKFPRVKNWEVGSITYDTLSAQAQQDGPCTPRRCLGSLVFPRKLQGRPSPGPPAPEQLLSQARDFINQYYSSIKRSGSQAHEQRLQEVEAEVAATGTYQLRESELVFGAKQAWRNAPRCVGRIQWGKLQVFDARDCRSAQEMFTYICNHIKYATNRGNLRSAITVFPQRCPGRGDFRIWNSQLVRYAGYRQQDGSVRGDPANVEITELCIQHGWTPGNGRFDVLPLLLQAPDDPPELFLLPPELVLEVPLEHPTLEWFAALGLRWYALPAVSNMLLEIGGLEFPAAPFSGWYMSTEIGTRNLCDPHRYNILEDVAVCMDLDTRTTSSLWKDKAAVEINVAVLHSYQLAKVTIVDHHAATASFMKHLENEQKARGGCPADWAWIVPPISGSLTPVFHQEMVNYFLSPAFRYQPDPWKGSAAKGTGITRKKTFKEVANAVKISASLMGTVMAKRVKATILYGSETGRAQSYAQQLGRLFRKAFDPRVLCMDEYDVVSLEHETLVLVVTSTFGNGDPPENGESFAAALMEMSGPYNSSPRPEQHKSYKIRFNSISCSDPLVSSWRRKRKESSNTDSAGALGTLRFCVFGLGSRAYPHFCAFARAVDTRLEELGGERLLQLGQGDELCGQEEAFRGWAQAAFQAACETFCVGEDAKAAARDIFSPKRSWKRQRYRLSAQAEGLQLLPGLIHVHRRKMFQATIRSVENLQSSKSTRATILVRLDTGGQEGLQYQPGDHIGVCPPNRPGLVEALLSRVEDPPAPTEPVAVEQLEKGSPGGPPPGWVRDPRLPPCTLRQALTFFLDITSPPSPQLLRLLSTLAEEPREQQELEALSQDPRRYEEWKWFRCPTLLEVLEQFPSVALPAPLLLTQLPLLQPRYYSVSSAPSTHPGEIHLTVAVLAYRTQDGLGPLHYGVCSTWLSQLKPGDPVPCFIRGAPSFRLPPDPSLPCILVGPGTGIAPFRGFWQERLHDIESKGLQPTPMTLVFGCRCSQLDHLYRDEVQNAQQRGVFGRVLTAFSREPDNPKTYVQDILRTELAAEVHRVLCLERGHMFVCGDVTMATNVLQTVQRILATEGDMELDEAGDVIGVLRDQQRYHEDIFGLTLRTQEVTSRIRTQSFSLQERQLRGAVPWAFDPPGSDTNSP

Nitric oxide synthase 1 = Nitric oxide synthase 1 (Homo sapiens, UniProt P29475); test: Inhibition of human nNOS assessed as inhibition of [3H]L-arginine to [3H]L-citrulline conversion by scintillation counting
Sequence of Nitric oxide synthase 1 (P29475 whole entry): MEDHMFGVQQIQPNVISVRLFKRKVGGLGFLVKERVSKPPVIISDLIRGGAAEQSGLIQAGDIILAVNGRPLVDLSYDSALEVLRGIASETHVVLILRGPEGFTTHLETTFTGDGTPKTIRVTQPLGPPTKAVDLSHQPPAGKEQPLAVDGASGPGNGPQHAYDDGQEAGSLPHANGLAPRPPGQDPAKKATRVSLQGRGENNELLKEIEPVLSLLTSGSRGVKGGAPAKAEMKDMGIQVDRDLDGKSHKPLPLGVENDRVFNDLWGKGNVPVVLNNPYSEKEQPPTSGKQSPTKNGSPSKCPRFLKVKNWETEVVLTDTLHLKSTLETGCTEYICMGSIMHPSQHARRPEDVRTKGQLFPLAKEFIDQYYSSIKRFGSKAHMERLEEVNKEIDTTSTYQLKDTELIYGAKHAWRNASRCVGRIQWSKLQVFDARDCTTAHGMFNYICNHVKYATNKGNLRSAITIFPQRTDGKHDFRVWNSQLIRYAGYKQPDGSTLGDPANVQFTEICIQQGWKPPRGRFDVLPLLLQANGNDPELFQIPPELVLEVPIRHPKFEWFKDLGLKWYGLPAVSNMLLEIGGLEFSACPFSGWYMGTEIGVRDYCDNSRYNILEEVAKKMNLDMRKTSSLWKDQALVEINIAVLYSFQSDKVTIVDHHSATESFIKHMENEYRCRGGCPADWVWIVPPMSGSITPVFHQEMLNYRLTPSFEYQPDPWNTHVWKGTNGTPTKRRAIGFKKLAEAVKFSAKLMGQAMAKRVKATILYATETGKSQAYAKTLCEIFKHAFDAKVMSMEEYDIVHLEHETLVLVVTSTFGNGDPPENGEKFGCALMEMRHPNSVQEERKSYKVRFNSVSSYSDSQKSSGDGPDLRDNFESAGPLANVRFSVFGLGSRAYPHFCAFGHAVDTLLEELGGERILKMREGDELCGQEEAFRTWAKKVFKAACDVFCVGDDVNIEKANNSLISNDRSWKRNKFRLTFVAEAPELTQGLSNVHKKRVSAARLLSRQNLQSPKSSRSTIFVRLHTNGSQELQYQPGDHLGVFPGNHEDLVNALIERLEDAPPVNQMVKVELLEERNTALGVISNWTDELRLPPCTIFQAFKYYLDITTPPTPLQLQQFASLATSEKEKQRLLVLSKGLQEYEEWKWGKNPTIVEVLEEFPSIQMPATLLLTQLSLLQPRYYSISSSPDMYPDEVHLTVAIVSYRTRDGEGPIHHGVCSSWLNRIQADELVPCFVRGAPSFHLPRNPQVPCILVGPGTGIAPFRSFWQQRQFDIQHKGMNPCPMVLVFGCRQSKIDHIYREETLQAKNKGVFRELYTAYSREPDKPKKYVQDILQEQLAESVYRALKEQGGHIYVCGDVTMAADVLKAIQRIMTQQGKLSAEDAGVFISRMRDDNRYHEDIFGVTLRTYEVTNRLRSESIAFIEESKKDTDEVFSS

[1] = target: Nitric oxide synthase, inducible (Homo sapiens, UniProt P35228); test: Inhibition of human iNOS assessed as inhibition of [3H]L-arginine to [3H]L-citrulline conversion by scintillation counting
Sequence of Nitric oxide synthase, inducible (P35228 whole entry): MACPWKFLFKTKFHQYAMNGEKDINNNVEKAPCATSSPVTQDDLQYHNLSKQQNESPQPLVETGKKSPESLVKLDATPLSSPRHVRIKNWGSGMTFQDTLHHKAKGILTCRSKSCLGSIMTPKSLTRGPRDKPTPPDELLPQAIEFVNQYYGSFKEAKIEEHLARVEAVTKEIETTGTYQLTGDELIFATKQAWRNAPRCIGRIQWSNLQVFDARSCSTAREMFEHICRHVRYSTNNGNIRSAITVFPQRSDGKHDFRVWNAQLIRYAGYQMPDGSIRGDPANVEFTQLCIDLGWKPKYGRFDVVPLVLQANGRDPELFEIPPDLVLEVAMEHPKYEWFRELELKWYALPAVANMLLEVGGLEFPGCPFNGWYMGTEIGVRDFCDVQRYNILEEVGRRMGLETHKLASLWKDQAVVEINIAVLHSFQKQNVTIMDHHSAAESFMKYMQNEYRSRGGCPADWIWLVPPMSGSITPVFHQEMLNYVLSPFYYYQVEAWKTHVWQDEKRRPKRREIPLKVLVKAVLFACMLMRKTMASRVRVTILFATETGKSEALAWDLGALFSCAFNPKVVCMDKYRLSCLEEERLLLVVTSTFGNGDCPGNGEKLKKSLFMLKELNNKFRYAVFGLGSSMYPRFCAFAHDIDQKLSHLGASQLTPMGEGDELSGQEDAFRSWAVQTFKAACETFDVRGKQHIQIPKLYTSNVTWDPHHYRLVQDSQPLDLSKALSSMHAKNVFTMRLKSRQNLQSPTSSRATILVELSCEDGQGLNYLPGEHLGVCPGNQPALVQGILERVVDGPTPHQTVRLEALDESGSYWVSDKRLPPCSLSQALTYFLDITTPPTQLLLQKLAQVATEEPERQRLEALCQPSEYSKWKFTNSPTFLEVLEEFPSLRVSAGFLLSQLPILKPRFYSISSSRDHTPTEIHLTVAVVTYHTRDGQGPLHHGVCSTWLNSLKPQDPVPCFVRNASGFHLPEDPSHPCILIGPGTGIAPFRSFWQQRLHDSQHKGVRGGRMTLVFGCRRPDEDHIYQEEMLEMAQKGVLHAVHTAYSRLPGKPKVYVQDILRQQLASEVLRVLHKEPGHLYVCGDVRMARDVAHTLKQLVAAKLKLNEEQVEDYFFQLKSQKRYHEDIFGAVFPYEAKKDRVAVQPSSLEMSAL

[2] = Absolute oral bioavailability in rat; assay type: ADME, organism-based; conditions: in vivo
Cytochrome P450 2C9 = Cytochrome P450 2C9 (Homo sapiens, UniProt P11712); test: Inhibition of CYP2C9; assay type: ADME
Sequence of Cytochrome P450 2C9 (P11712 whole entry): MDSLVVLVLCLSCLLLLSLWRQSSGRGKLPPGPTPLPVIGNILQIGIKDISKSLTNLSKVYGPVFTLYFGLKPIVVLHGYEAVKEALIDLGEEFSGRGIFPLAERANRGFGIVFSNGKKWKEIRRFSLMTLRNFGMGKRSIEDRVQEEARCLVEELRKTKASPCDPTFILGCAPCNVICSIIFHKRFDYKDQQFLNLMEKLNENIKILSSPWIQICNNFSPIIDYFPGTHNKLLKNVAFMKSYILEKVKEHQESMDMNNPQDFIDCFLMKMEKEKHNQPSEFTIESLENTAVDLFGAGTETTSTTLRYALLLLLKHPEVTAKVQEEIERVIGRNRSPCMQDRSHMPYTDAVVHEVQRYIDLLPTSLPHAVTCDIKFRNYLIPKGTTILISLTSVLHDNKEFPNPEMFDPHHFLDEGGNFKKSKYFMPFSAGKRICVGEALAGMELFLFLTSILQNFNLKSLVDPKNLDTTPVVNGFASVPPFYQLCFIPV

[3] = Cmax in rat; assay type: ADME, organism-based; conditions: in vivo
[4] = Clearance in rat; assay type: ADME, organism-based; conditions: in vivo
[5] = Inhibition of CYP; assay type: ADME
[6] = target: T2, Nitric oxide synthase, inducible (Mus musculus) (UniProt P29477); test: Binding affinity to mouse iNOSox L-arginine binding site by X-ray crystallography
T2 sequence (whole entry): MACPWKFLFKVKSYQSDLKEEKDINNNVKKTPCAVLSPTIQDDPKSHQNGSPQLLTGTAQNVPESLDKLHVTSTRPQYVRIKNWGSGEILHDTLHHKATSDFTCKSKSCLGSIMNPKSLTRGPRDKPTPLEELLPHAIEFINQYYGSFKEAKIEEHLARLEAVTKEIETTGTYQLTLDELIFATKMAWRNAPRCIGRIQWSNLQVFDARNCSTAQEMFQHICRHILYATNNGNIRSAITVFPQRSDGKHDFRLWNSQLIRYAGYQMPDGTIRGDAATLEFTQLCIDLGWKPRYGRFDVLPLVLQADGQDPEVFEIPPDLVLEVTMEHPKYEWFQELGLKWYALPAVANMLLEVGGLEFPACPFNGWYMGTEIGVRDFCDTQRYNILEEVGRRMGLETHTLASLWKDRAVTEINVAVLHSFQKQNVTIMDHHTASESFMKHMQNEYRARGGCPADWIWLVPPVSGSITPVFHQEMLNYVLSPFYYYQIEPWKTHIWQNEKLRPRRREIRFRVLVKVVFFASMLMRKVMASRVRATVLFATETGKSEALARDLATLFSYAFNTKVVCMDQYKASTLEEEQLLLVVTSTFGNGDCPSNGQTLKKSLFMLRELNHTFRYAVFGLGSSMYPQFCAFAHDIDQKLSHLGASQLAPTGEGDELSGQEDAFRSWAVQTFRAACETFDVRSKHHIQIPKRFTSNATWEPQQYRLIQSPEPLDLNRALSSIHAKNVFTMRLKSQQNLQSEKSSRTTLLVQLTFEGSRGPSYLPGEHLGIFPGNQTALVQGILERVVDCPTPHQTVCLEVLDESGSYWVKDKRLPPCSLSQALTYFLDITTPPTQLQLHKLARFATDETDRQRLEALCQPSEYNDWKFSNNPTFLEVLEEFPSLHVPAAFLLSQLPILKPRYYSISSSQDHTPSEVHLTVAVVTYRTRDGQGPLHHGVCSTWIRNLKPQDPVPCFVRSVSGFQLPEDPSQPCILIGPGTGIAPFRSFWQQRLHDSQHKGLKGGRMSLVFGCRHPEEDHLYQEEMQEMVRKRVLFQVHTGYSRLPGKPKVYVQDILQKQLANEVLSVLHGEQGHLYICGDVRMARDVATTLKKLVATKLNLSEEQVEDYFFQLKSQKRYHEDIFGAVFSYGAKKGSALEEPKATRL

SMILES	IC50 (Nitric oxide synthase 3)	IC50 (Nitric oxide synthase 1)	IC50 [1]	other results
COc1ccnc(CCc2nc3c(OCCc4ccccc4)ccnc3[nH]2)c1	66.1 µM	13.8 µM	0.724 µM	
COc1ccnc(CCc2nc3ncccc3[nH]2)c1	112 µM	13.8 µM		bioavailability [2]: 48%; IC50 (Cytochrome P450 2C9): 3.16 µM; Cmax [3]: 2240 ng/mL; clearance [4]: 36.8 mL/min/kg
COc1ccnc(CSc2nc3cccnc3[nH]2)c1	53.7 µM	3.39 µM	0.115 µM	
CC(=N)NCCCC[C@H](N)C(=O)Nc1nnn[nH]1	> 100 µM	> 100 µM	> 100 µM	
C[C@H]1CC(=N)N[C@@H]2[C@H](Cl)[C@@H]21				Ki (Nitric oxide synthase 3): 0.0186 µM; Ki [1]: 0.00186 µM
COc1ccnc(CSc2nc3ccccc3[nH]2)c1	26.3 µM	26.9 µM	10.7 µM	
COc1ccnc(CCc2nc3c(OC)ccnc3[nH]2)c1	204 µM	58.9 µM	0.776 µM	
COc1ccnc(CCc2nc3cc(Br)cnc3[nH]2)c1	87.1 µM	8.32 µM	0.186 µM	
COc1ccnc(CCc2nc3cccnc3[nH]2)c1				pIC50 [5]: < 4; Activity [6]: Active
COc1ccnc(CSC)c1OC	> 100 µM	> 100 µM	> 100 µM	
COCCOc1ccnc2[nH]c(CCc3cc(OC)ccn3)nc12	204 µM	123 µM	0.513 µM	

Second part, led by results:

IC50 (Nitric oxide synthase 3)	IC50 (Nitric oxide synthase 1)	IC50 [1]	SMILES	other results
87.1 µM	1.91 µM	0.055 µM	CCCCc1cnc2[nH]c(CCc3cc(OC)ccn3)nc2c1	
> 100 µM	> 100 µM	49 µM	COc1ccnc(CSc2nc3ccncc3[nH]2)c1	
> 100 µM	12.6 µM	2.29 µM	COc1ccnc(CCc2nc3c(C)cc(C)nc3[nH]2)c1	
> 100 µM	> 100 µM	> 100 µM	COc1cnc(CSC)cc1OC	
100 µM	26.3 µM	0.38 µM	COc1ccnc(CCc2nc3ccc(OC)nc3[nH]2)c1	
18.2 µM	1.2 µM		COc1ccnc(CCc2nc3cc(-c4ccccc4)cnc3[nH]2)c1	
1.07 µM	0.447 µM	0.155 µM	COc1ccnc(CSC)c1	
> 100 µM	6.61 µM	0.0708 µM	COc1ccnc(NC2CCN(C(=O)c3ccc(C#N)nc3)CC2)c1	
> 100 µM		4.68 µM	CC(=N)NCCCC[C@H](N)C(=O)O [L-NIL]	
45.7 µM	18.6 µM	0.145 µM	COc1ccnc(CCc2nc3c(C)ccnc3[nH]2)c1	
